# According to PubChem BioAssay (NCI):
# Several values for one entry are separate records, joined by “and”; a condition that tells them apart may be missing. Equal entries are not always repeated.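 Briefly, cells in 96-well plates were exposed to five compound concentrations for 48 h, and endpoints were estimated by linear interpolation. The concentration for 50% growth inhibition is given as GI50. TGI: total growth inhibition.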
# Columns and labels:
# Assay in all cases: DTP human tumour cell line panel, 48 h
# A549 NSCLC = tested on: A549 NSCLC
# MDA-MB-435 = tested on: MDA-MB-435
# HCC-2998 colon = tested on: HCC-2998 colon
# DU-145 prostate = tested on: DU-145 prostate
# SW-620 colon = tested on: SW-620 colon
# RXF 393 renal = tested on: RXF 393 renal
# SK-MEL-28 melanoma = tested on: SK-MEL-28 melanoma
# BT-549 breast = tested on: BT-549 breast
# OVCAR-8 ovarian = tested on: OVCAR-8 ovarian
# NCI/ADR-RES ovarian = tested on: NCI/ADR-RES ovarian
Compound,GI50 (A549 NSCLC),TGI (A549 NSCLC) [µM],GI50 (MDA-MB-435),TGI (MDA-MB-435) [µM],GI50 (HCC-2998 colon),TGI (HCC-2998 colon) [µM],GI50 (DU-145 prostate),TGI (DU-145 prostate) [µM],GI50 (SW-620 colon),TGI (SW-620 colon) [µM],GI50 (RXF 393 renal),TGI (RXF 393 renal) [µM],GI50 (SK-MEL-28 melanoma),TGI (SK-MEL-28 melanoma) [µM],GI50 (BT-549 breast),TGI (BT-549 breast) [µM],GI50 (OVCAR-8 ovarian),TGI (OVCAR-8 ovarian) [µM],GI50 (NCI/ADR-RES ovarian),TGI (NCI/ADR-RES ovarian) [µM]
CC(C)(C)n1cc(-c2ccnc(NCCCNS(=O)(=O)c3ccc(Br)cc3)c2)c(-c2cccc(O)c2)n1,2.11 µM,5.39,1.82 µM,3.29,1.92 µM,3.48,2.1 µM,4.23,1.83 µM,3.63,1.46 µM,2.87,1.79 µM,3.36,1.5 µM,2.98,2.43 µM,6.88,2.21 µM,5.03
C/C(=C(/c1ccc(O)cc1)c1ccc(Cl)cc1)c1ccccc1,0.723 µM,2.53,0.534 µM,1.18,0.612 µM,1.51,0.719 µM,1.91,0.8 µM,2.78,0.469 µM,1.17,0.685 µM,2.18,0.575 µM,1.53,0.9 µM,3.21,0.668 µM,1.89
CC12CC=CCC1CCC1C2CCC2(C)C(c3ccc(=O)oc3)CCC12O (stereo not given),0.032 µM,0.119,0.179 µM,0.727,0.374 µM,3.37,0.0448 µM,0.168,0.0539 µM,0.366,0.0174 µM,0.0501,0.3 µM,1.37,0.04 µM,0.209,0.0944 µM,0.324,0.0485 µM,0.276
CSc1nsc(S/C=C\C(=O)c2ccc(C)cc2)n1,35.1 µM,> 90.5,19.2 µM,45.6,17.8 µM,33.8,20.5 µM,> 49.5,1.3 µM,17.8,15.9 µM,31.9,13.4 µM,> 45.1,17.5 µM,40.3,22.5 µM,57.5,25.8 µM,67.7
CC1(C)C(=O)C=CC2(C)C1CC(O)C1(C)C2CCC2(C)C(c3ccoc3)OC(=O)C3OC321 (stereo not given),,69.8,,72.7,,26.2,,51.4,,59.9,,33.6,,70.3,,41.1,,26.8,,30.5
COc1cc2ncnc3c2cc1OCCCCCN(C)Cc1ccc(Br)cc1N3,6.23 µM and 1.9 µM,> 100,8.63 µM and 7.39 µM,> 100,17.7 µM and > 10 µM,> 100,0.676 µM and 0.555 µM,> 100,6.31 µM and 5.72 µM,> 100,4.03 µM and 1.84 µM,> 100,6.68 µM and 7.54 µM,> 100,21.8 µM and 6.87 µM,> 100,12 µM and 2.67 µM,> 100,3.34 µM and 2.04 µM,> 100
N=c1ccc2nc3c(cc(N)c4ccccc43)oc-2c1,0.295 µM,1.05,0.182 µM,0.338,0.38 µM,1.31,0.265 µM,0.692,0.252 µM,0.754,0.71 µM,2.32,1.19 µM,2.54,0.268 µM,1.27,0.457 µM,3.28,0.223 µM,1.09
Cc1cc(=O)oc2cc(OC(=O)N(CCCl)CCCl)ccc12,,> 100,,> 100,,> 100,,> 100,,> 100,,> 100,,> 100,,> 100,,> 100,,> 100
CNCCNc1nc2ccccc2c2c(=O)c3cc(OC)ccc3sc12,1.71 µM,3.41,1.72 µM,3.13,1.47 µM,2.9,1.73 µM,3.16,1.41 µM,2.91,1.39 µM,2.7,1.84 µM,3.34,1.59 µM,3.11,1.91 µM,4.39,1.68 µM,3.48
CCCCCCNC(=O)Oc1ccc(/C(=C(/C)Cc2ccc(OC)cc2)c2ccc(OCCN(C)C)cc2)cc1,5.65 µM,10.8,4.62 µM,9.17,3.82 µM,8.43,5.55 µM,10.4,4.86 µM,9.59,4.36 µM,9.23,3.88 µM,8.06,5.11 µM,9.86,5.32 µM,11.1,5.07 µM,10.7
COC(=O)[C@]1(C)CCC[C@@]2(C)[C@@H]3C[C@@H]4[C@H]5C[C@@]3(CC[C@@H]21)C[C@@]45C,,28,,38.7,,31,,65.9,,62.6,,38.2,,47.1,,30.2,,30.6,,32.1
Cn1cc(C2=C(c3cn(C)c4cc(N)ccc34)C(=O)NC2=O)c2ccccc21,3.09 µM,> 25,0.112 µM,> 21.2,1.5 µM,> 25,1.84 µM,16.8,1.5 µM,> 25,1.84 µM,7.59,4.71 µM,18.4,4.32 µM,14.6,4.18 µM,> 25,4.58 µM,24.2
CC[C@]1(O)C[C@@H]2CN(CCc3c([nH]c4ccccc34)[C@@](C(=O)OC)(c3cc4c(cc3OC)N(C)[C@H]3[C@@](O)(C(N)=O)[C@H](O)[C@]5(CC)[C@@H]6C[C@@H]6CN6CC[C@]43[C@@H]65)C2)C1,0.0128 µM,> 33.3,< 0.00333 µM,< 0.00333,0.00413 µM,> 29,< 0.00333 µM,0.795,< 0.00333 µM,> 33.3,0.0153 µM,> 33.3,6.47 µM,> 33.3,< 0.00333 µM,0.708,0.0143 µM,> 33.3,0.745 µM,> 9.84
